The assay in a line: Compound was tested for inhibitory activity on mitochondrial electron transport using submitochondrial particles (SMP) from beef heart. Format: functional, Bos taurus.

Our source for the IC50 values is ChEMBL document CHEMBL1134452, “Novel inhibitors of mitochondrial respiratory chain: endoperoxides from the marine tunicate Stolonica socialis” (J Med Chem, 2001).

Molecules are shown by their SMILES. Some results are limits rather than exact numbers.

With `C=CCC/C=C/C=C/CCCCCC[C@@H]1CC[C@@H]([C@@H]2CC[C@@H](CC(=O)OC)OO2)O1`, the IC50 (in general, the midpoint of a concentration-inhibition curve) is less than 1000 nM.
As to `C=CCC/C=C/C=C/CCCCCC[C@H]1CC[C@H]([C@@H]2CC[C@@H](CC(=O)OC)OO2)O1`, the IC50 is less than 1000 nM.
